Experimental data from ChEMBL document CHEMBL2424524, “Synthesis and biological evaluation of novel ocotillol-type triterpenoid derivatives as antibacterial agents” (Eur J Med Chem, 2013).
Values after ≈ are worked out from the molar mass of the structure shown.

Experiments:
Bacillus subtilis [1] = assay: Antibacterial activity against Bacillus subtilis 168 by dilution technique in presence of kanamycin; type: functional, subsp. subtilis str. 168
HeLa = assay: Cytotoxicity against human HeLa cells after 72 hrs by MTT assay; type: cell-based
Staphylococcus aureus [2] = assay: Antibacterial activity against community associated methicillin-resistant Staphylococcus aureus USA300 by dilution technique; type: functional
[3] = Selectivity index, ratio of IC50 for human HEK293 cells to MIC for Staphylococcus aureus RN4220; type: functional
Escherichia coli = assay: Antibacterial activity against Escherichia coli by dilution technique; type: functional
Bacillus subtilis [4] = assay: Antibacterial activity against Bacillus subtilis 168 by dilution technique; type: functional; conditions: subsp. subtilis str. 168
Bacillus subtilis [5] = assay: Antibacterial activity against Bacillus subtilis 168 by dilution technique in presence of chloramphenicol; type: functional, subsp. subtilis str. 168
Staphylococcus aureus [6] = assay: Antibacterial activity against community associated methicillin-resistant Staphylococcus aureus USA300 by dilution technique in presence of kanamycin; type: functional
[7] = Selectivity index, ratio of IC50 for human HeLa cells to MIC for Staphylococcus aureus RN4220; type: functional
[8] = Selectivity index, ratio of IC50 for human HEK293 cells to MIC for community associated methicillin-resistant Staphylococcus aureus USA300; type: functional
HEK293 = assay: Cytotoxicity against human HEK293 cells after 72 hrs by MTT assay; type: cell-based; conditions: HEK293, 72 h
Staphylococcus aureus [9] = assay: Antibacterial activity against community associated methicillin-resistant Staphylococcus aureus USA300 by dilution technique in presence of chloramphenicol; type: functional
[10] = Selectivity index, ratio of IC50 for human HeLa cells to MIC for community associated methicillin-resistant Staphylococcus aureus USA300; type: functional
Acinetobacter baumannii = assay: Antibacterial activity against Acinetobacter baumannii by dilution technique; type: functional
Pseudomonas aeruginosa = assay: Antibacterial activity against Pseudomonas aeruginosa by dilution technique; type: functional
Staphylococcus aureus [11] = assay: Antibacterial activity against Staphylococcus aureus RN4220 by dilution technique; type: functional

Compound | fractional inhibitory concentration index (FICI) (Bacillus subtilis [1]) | IC50 (HeLa) [µg/mL] | MIC (Staphylococcus aureus [2]) [µg/mL] | Selectivity Index [3] | MIC (Escherichia coli) [µg/mL] | MIC (Bacillus subtilis [4]) [µg/mL] | fractional inhibitory concentration index (FICI) (Bacillus subtilis [5]) | fractional inhibitory concentration index (FICI) (Staphylococcus aureus [6]) | Selectivity Index [7] | Selectivity Index [8] | IC50 (HEK293) [µg/mL] | fractional inhibitory concentration index (FICI) (Staphylococcus aureus [9]) | Selectivity Index [10] | MIC (Acinetobacter baumannii) [µg/mL] | MIC (Pseudomonas aeruginosa) [µg/mL] | MIC (Staphylococcus aureus [11]) [µg/mL] | MBC (Bacillus subtilis [4]) [µg/mL] | MBC (Staphylococcus aureus [2]) [µg/mL] | MBC (Staphylococcus aureus [11]) [µg/mL]
CC(C)(O)[C@@H]1CC[C@@](C)([C@H]2CC[C@]3(C)[C@@H]2[C@H](O)C[C@@H]2[C@@]4(C)CC[C@H](O)C(C)(C)[C@@H]4CC[C@]23C)O1 | 1.03 | 47.6 (≈ 99.9 µM) | 8 (≈ 16.8 µM) | 19.3 | > 128 | 8 (≈ 16.8 µM) | 1.25 | 0.14 | 6 | 19.3 | 154 (≈ 324 µM) | 1.5 | 6 | > 128 | > 128 | 8 (≈ 16.8 µM) |  |  | 
CC(C)(O)[C@@H]1CC[C@@](C)([C@H]2CC[C@]3(C)[C@@H]2C(=O)C[C@@H]2[C@@]4(C)CC[C@H](O)C(C)(C)[C@@H]4CC[C@]23C)O1 |  |  |  |  | 64 (≈ 135 µM) | > 128 |  |  |  |  |  |  |  | > 128 | > 128 | 64 (≈ 135 µM) |  |  | 
CC(C)(O)[C@H]1CC[C@@](C)([C@H]2CC[C@]3(C)[C@@H]2[C@H](OC(=O)c2ccccc2C(=O)O)C[C@@H]2[C@@]4(C)CC[C@H](O)C(C)(C)[C@@H]4CC[C@]23C)O1 |  |  | 64 (≈ 102 µM) |  | > 128 | 16 (≈ 25.6 µM) |  |  |  |  |  |  |  | > 128 | > 128 | 64 (≈ 102 µM) | 128 (≈ 205 µM) |  | 
CC(C)(O)[C@@H]1CC[C@@](C)([C@H]2CC[C@]3(C)[C@@H]2C(=O)C[C@@H]2[C@@]4(C)CCC(=O)C(C)(C)[C@@H]4CC[C@]23C)O1 |  | 47 (≈ 99.4 µM) | 16 (≈ 33.8 µM) | 10.6 | > 128 | 64 (≈ 135 µM) |  |  | 2.9 | 10.6 | 170 (≈ 360 µM) |  | 2.9 | > 128 | > 128 | 16 (≈ 33.8 µM) |  |  | 
CC(C)(O)[C@@H]1CC[C@@](C)([C@H]2CC[C@]3(C)[C@@H]2[C@H](OC(=O)c2ccccc2C(=O)O)C[C@@H]2[C@@]4(C)CC[C@H](O)C(C)(C)[C@@H]4CC[C@]23C)O1 | <0.008 | 54.4 (≈ 87 µM) | 32 (≈ 51.2 µM) | 43.8 | > 128 | 16 (≈ 25.6 µM) | <0.004 | 0.008 | 13.6 | 5.5 | 175 (≈ 281 µM) | 0.005 | 1.7 | > 128 | 128 (≈ 205 µM) | 4 (≈ 6.4 µM) | 64 (≈ 102 µM) | 128 (≈ 205 µM) | 64 (≈ 102 µM)
CC(C)=CCC[C@](C)(O)[C@H]1CC[C@]2(C)[C@@H]1[C@H](O)C[C@@H]1[C@@]3(C)CC[C@H](O)C(C)(C)[C@@H]3CC[C@]12C | 0.25 |  | 32 (≈ 69.5 µM) |  | 64 (≈ 139 µM) | 32 (≈ 69.5 µM) | 0.53 | 0.26 |  |  |  | 1.13 |  | 64 (≈ 139 µM) | > 128 | 16 (≈ 34.7 µM) |  |  | 
O=C(N[C@H](CO)[C@H](O)c1ccc([N+](=O)[O-])cc1)C(Cl)Cl [CHLORAMPHENICOL] |  |  | 4 (≈ 12.4 µM) |  |  | 2 (≈ 6.19 µM) |  |  |  |  |  |  |  |  |  |  |  |  | 
O=c1[nH]cc(F)c(=O)[nH]1 [FLUOROURACIL] |  | 0.8 (≈ 6.15 µM) |  |  |  |  |  |  |  |  |  |  |  |  |  |  |  |  | 
CC(C)(O)[C@H]1CC[C@@](C)([C@H]2CC[C@]3(C)[C@@H]2[C@H](O)C[C@@H]2[C@@]4(C)CC[C@H](O)C(C)(C)[C@@H]4CC[C@]23C)O1 |  |  |  |  | > 128 | 128 (≈ 268 µM) |  |  |  |  |  |  |  | 128 (≈ 268 µM) | > 128 | 64 (≈ 134 µM) |  |  | 
NC[C@H]1O[C@H](O[C@H]2[C@H](O)[C@@H](O[C@H]3O[C@H](CO)[C@@H](O)[C@H](N)[C@H]3O)[C@H](N)C[C@@H]2N)[C@H](O)[C@@H](O)[C@@H]1O [KANAMYCIN] |  |  | 1 (≈ 2.06 µM) |  | 1 (≈ 2.06 µM) | 0.25 (≈ 0.516 µM) |  |  |  |  |  |  |  | 1 (≈ 2.06 µM) | 8 (≈ 16.5 µM) | 1 (≈ 2.06 µM) | 1 (≈ 2.06 µM) | 4 (≈ 8.26 µM) | 
C=C(C)[C@@H]1CC[C@]2(C(=O)O)CC[C@]3(C)[C@H](CC[C@@H]4[C@@]5(C)CC[C@H](O)[C@@](C)(CO)[C@@H]5CC[C@]43C)[C@@H]12 |  |  | 16 (≈ 33.8 µM) |  | > 128 | 8 (≈ 16.9 µM) |  |  |  |  |  |  |  | > 128 | > 128 | 16 (≈ 33.8 µM) |  |  | 
CC(=O)O[C@@H]1C[C@@H]2[C@@]3(C)CC[C@H](O)C(C)(C)[C@@H]3CC[C@@]2(C)[C@]2(C)CC[C@H]([C@]3(C)CC[C@H](C(C)(C)O)O3)[C@@H]12 |  |  |  |  | 64 (≈ 123 µM) | > 128 |  |  |  |  |  |  |  | 128 (≈ 247 µM) | 128 (≈ 247 µM) | 64 (≈ 123 µM) |  |  | 
CC(C)(O)[C@@H]1CC[C@@](C)([C@H]2CC[C@]3(C)[C@@H]2[C@H](O)C[C@@H]2[C@@]4(C)CCC(=O)C(C)(C)[C@@H]4CC[C@]23C)O1 |  |  |  |  | > 128 | 32 (≈ 67.4 µM) |  |  |  |  |  |  |  | > 128 | > 128 | > 128 |  |  | 
CC(C)(O)[C@@H]1CC[C@@](C)([C@H]2CC[C@]3(C)[C@@H]2[C@H](OC(=O)/C=C/c2ccccc2)C[C@@H]2[C@@]4(C)CC[C@H](O)C(C)(C)[C@@H]4CC[C@]23C)O1 |  |  |  |  | > 128 | > 128 |  |  |  |  |  |  |  | 32 (≈ 52.7 µM) | 128 (≈ 211 µM) | > 128 |  |  | 
CC(C)(O)[C@H]1CC[C@@](C)([C@H]2CC[C@]3(C)[C@@H]2C(=O)C[C@@H]2[C@@]4(C)CC[C@H](O)C(C)(C)[C@@H]4CC[C@]23C)O1 |  |  |  |  | > 128 | 128 (≈ 270 µM) |  |  |  |  |  |  |  | > 128 | > 128 | > 128 |  |  | 
CC(C)(O)[C@H]1CC[C@@](C)([C@H]2CC[C@]3(C)[C@@H]2C(=O)C[C@@H]2[C@@]4(C)CCC(=O)C(C)(C)[C@@H]4CC[C@]23C)O1 |  |  |  |  | > 128 | 128 (≈ 271 µM) |  |  |  |  |  |  |  | > 128 | > 128 | 128 (≈ 271 µM) |  |  | 
CC(=O)O[C@@H]1C[C@@H]2[C@@]3(C)CC[C@H](O)C(C)(C)[C@@H]3CC[C@@]2(C)[C@]2(C)CC[C@H]([C@]3(C)CC[C@@H](C(C)(C)O)O3)[C@@H]12 |  |  |  |  | 64 (≈ 123 µM) | > 128 |  |  |  |  |  |  |  | 64 (≈ 123 µM) | 64 (≈ 123 µM) | > 128 |  |  | 
CC(C)(O)[C@H]1CC[C@@](C)([C@H]2CC[C@]3(C)[C@@H]2[C@H](O)C[C@@H]2[C@@]4(C)CCC(=O)C(C)(C)[C@@H]4CC[C@]23C)O1 |  |  |  |  | > 128 | 128 (≈ 270 µM) |  |  |  |  |  |  |  | > 128 | > 128 | 128 (≈ 270 µM) |  |  | 
